# Experimental data reported in patent US9504669B2, “Spliceostatin analogs and methods for their preparation” (PFIZER INC., priority 2012, dated 2016).
# Columns and labels:
# Format in all cases: cell-based
# [1] = tested on: MDA-MB-468 cells (target non-expressing); test: In vitro cell assay (MTS cell viability), MDA-MB-468; conditions: Homo sapiens, MDA-MB-468, 96 h, read-out: MDA-MB-468 IC50 (nM)
# Protocol: Target expressing (BT474 (breast cancer), N87 (gastric cancer), HCC1954 (breast cancer), MDA-MB-361-DYT2 (breast cancer)) or non-expressing (MDA-MB-468) cells were seeded in 96-well cell culture plates for 24 hours before treatment. Cells were treated with 3-fold serially diluted antibody-drug conjugates or free compounds (i.e., no antibody conjugated to the drug) in duplicate at 10 concentrations. Cell viability was determined by CellTiter 96® AQueous One Solution Cell Proliferation MTS Assay (Promega, Madison Wis.) 96 hours after treatment. Relative cell viability was determined as percentage of untreated control. IC50 values were calculated using a four parameter logistic model #203 with XLfit v4.2 (IDBS, Guildford, Surry, UK). The potency ranged upward from 0.0002 nm. Similar procedures and techniques were employed.
# [2] = tested on: MDA-MB-361-DYT2 (breast cancer) cells; test: In vitro cell assay (MTS cell viability), MDA-MB-361-DYT2; conditions: 96 h, free compounds (natural products and synthetic analogs); cell viability 96 hours after treatment
# Method in brief: (§1)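 Cells seeded 24 h, then treated with antibody-drug conjugates or free drug, 3-fold serial dilutions at 10 concentrations in duplicate. Viability by MTS at 96 h as percent of untreated control; IC50 from four-parameter logistic fit.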
# [3] = tested on: BT474 (breast cancer) cells; test: In vitro cell assay (MTS cell viability), BT474; conditions: Homo sapiens, BT-474; free compounds (natural products and synthetic analogs); cell viability 96 hours after treatment
# Method in brief: as §1
# [4] = tested on: N87 (gastric cancer) cells; test: In vitro cell assay (MTS cell viability), N87; conditions: 96 h, free compounds (natural products and synthetic analogs); cell viability 96 hours after treatment
# Method in brief: as §1
Structure (SMILES),IC50 [1],IC50 [2],IC50 [3],IC50 [4]
"CC(/C=C/[C@H]1O[C@H](CC(=O)O)C[C@@]2(CO2)[C@@H]1O)=C\C[C@@H]1O[C@H](C)[C@H](NC(=O)/C=C\[C@H](C)O)C[C@@H]1C [#B4, [(3R,5S,7R,8R)-8-hydroxy-7-{(1E,3E)-5-[(2S,3S,5R,6R)-5-{[(2Z,4S)-4-hydroxypent-2-enoyl]amino}-3,6-dimethyltetrahydro-2H-pyran-2-yl]-3-methylpenta-1,3-dien-1-yl}-1,6-dioxaspiro[2.5]oct-5-yl]acetic acid]",> 100 nM,> 100 nM,> 100 nM,> 100 nM
"CC(=O)O[C@@H](C)/C=C\C(=O)N[C@@H]1C[C@H](C)[C@H](C/C=C(C)/C=C/[C@H]2O[C@H](CC(=O)NN)C[C@@]3(CO3)[C@@H]2O)O[C@@H]1C [#B6, (2S,3Z)-5-{[(2R,3R,5S,6S)-6-{(2E,4E)-5-[(3R,4R,5R,7S)-7-(2-hydrazinyl-2-oxoethyl)-4-hydroxy-1,6-dioxaspiro[2.5]oct-5-yl]-3-methylpenta-2,4-dien-1-yl}-2,5-dimethyltetrahydro-2H-pyran-3-yl]amino}-5-oxopent-3-en-2-yl acetate]",7.97 nM,25.4 nM,16.5 nM,5.66 nM
"CC(=O)O[C@@H](C)/C=C\C(=O)N[C@@H]1C[C@H](C)[C@H](C/C=C(C)/C=C/[C@@H]2C[C@]3(CO3)C[C@@H](CC(N)=O)O2)O[C@@H]1C [#B15, (2S,3Z)-5-{[(2R,3R,5S,6S)-6-{(2E,4E)-5-[(3S,5S,7S)-7-(2-amino-2-oxoethyl)-1,6-dioxaspiro[2.5]oct-5-yl]-3-methylpenta-2,4-dien-1-yl}-2,5-dimethyltetrahydro-2H-pyran-3-yl]amino}-5-oxopent-3-en-2-yl acetate]",0.363 nM,0.537 nM,0.522 nM,0.203 nM
"CC(/C=C/[C@@H]1C[C@]2(CO2)C[C@@H](CC(=O)O)O1)=C\C[C@@H]1O[C@H](C)[C@H](NC(=O)/C=C\[C@H](C)O)C[C@@H]1C [#B16, [(3S,5S,7S)-7-{(1E,3E)-5-[(2S,3S,5R,6R)-5-{[(2Z,4S)-4-hydroxypent-2-enoyl]amino}-3,6-dimethyltetrahydro-2H-pyran-2-yl]-3-methylpenta-1,3-dien-1-yl}-1,6-dioxaspiro[2.5]oct-5-yl]acetic acid]",36.8 nM,> 100 nM,76.1 nM,16.8 nM
"CCCNC(=O)C[C@@H]1C[C@@]2(CO2)[C@H](O)[C@@H](/C=C/C(C)=C/C[C@@H]2O[C@H](C)[C@H](NC(=O)/C=C\[C@H](C)OC(C)=O)C[C@@H]2C)O1 [#B63, (2S,3Z)-5-({(2R,3R,5S,6S)-6-[(2E,4E)-5-{(3R,4R,5R,7S)-4-hydroxy-7-[2-oxo-2-(propylamino)ethyl]-1,6-dioxaspiro[2.5]oct-5-yl}-3-methylpenta-2,4-dien-1-yl]-2,5-dimethyltetrahydro-2H-pyran-3-yl}amino)-5-oxopent-3-en-2-yl acetate]",0.348 nM,0.293 nM,0.651 nM,1.1 nM
"CCCNC(=O)C[C@@H]1C[C@@]2(CO2)[C@H](O)[C@@H](/C=C/C(C)=C/C[C@@H]2O[C@H](C)[C@H](NC(=O)/C=C\[C@H](C)OC(=O)N3CCCCC3)C[C@@H]2C)O1 [#B66, (2S,3Z)-5-({(2R,3R,5S,6S)-6-[(2E,4E)-5-{(3R,4R,5R,7S)-4-hydroxy-7-[2-oxo-2-(propylamino)ethyl]-1,6-dioxaspiro[2.5]oct-5-yl}-3-methylpenta-2,4-dien-1-yl]-2,5-dimethyltetrahydro-2H-pyran-3-yl}amino)-5-oxopent-3-en-2-yl piperidine-1-carboxylate]",0.27 nM,–,0.18 nM,1.58 nM
"CC(=O)O[C@@H](C)/C=C\C(=O)N[C@@H]1C[C@H](C)[C@H](C/C=C(C)/C=C/[C@H]2O[C@H](CC(=O)N[C@H]3C[C@H](N)C3)C[C@@]3(CO3)[C@@H]2O)O[C@@H]1C [#B73, (2S,3Z)-5-{[(2R,3R,5S,6S)-6-{(2E,4E)-5-[(3R,4R,5R,7S)-7-{2-[(trans-3-aminocyclobutyl)amino]-2-oxoethyl}-4-hydroxy-1,6-dioxaspiro[2.5]oct-5-yl]-3-methylpenta-2,4-dien-1-yl}-2,5-dimethyltetrahydro-2H-pyran-3-yl]amino}-5-oxopent-3-en-2-yl acetate]",276 nM,443 nM,296 nM,174 nM
"CC(=O)O[C@@H](C)/C=C\C(=O)N[C@@H]1C[C@H](C)[C@H](C/C=C(C)/C=C/[C@H]2O[C@H](CC(=O)N[C@H]3CC[C@H](N)CC3)C[C@@]3(CO3)[C@@H]2O)O[C@@H]1C [#B76, (2S,3Z)-5-{[(2R,3R,5S,6S)-6-{(2E,4E)-5-[(3R,4R,5R,7S)-7-{2-[(trans-4-aminocyclohexyl)amino]-2-oxoethyl}-4-hydroxy-1,6-dioxaspiro[2.5]oct-5-yl]-3-methylpenta-2,4-dien-1-yl}-2,5-dimethyltetrahydro-2H-pyran-3-yl]amino}-5-oxopent-3-en-2-yl acetate]",272 nM,885 nM,341 nM,331 nM
"CCCNC(=O)C(C)(C)NC(=O)C[C@@H]1C[C@@]2(CO2)[C@H](O)[C@@H](/C=C/C(C)=C/C[C@@H]2O[C@H](C)[C@H](NC(=O)/C=C\[C@H](C)OC(C)=O)C[C@@H]2C)O1 [#B81, (2S,3Z)-5-{[(2R,3R,5S,6S)-6-{(2E,4E)-5-[(3R,4R,5R,7S)-4-hydroxy-7-(2-{[2-methyl-1-oxo-1-(propylamino)propan-2-yl]amino}-2-oxoethyl)-1,6-dioxaspiro[2.5]oct-5-yl]-3-methylpenta-2,4-dien-1-yl}-2,5-dimethyltetrahydro-2H-pyran-3-yl]amino}-5-oxopent-3-en-2-yl acetate]",> 100 nM,> 100 nM,> 100 nM,70.7 nM
"COC(=O)C[C@@H]1C[C@@]2(CO2)C[C@@H](/C=C/C(C)=C/C[C@@H]2O[C@H](C)[C@H](NC(=O)/C=C\[C@H](C)O)C[C@@H]2C)O1 [#B148, methyl [(3S,5S,7S)-7-{(1E,3E)-5-[(2S,3S,5R,6R)-5-{[(2Z,4S)-4-hydroxypent-2-enoyl]amino}-3,6-dimethyltetrahydro-2H-pyran-2-yl]-3-methylpenta-1,3-dien-1-yl}-1,6-dioxaspiro[2.5]oct-5-yl]acetate]",64.4 nM,> 100 nM,40.8 nM,47.4 nM
"CC(=O)O[C@@H](C)/C=C\C(=O)N[C@@H]1C[C@H](C)[C@H](C/C=C(C)/C=C/[C@H]2O[C@H](CC(=O)O)C[C@@](O)(CCl)[C@@H]2O)O[C@@H]1C [#NP5, (5R)-5-{(1E,3E)-5-[(2S,3S,5R,6R)-5-{[(2Z,4S)-4-(acetyloxy)pent-2-enoyl]amino}-3,6-dimethyltetrahydro-2H-pyran-2-yl]-3-methylpenta-1,3-dien-1-yl}-1,5-anhydro-1-(carboxymethyl)-3-C-(chloromethyl)-2-deoxypentitol]",> 100 nM,–,> 100 nM,> 100 nM
"CC(=O)O[C@@H](C)/C=C\C(=O)N[C@@H]1C[C@H](C)[C@H](C/C=C(C)/C=C/[C@H]2OC(C)(O)C(O)C(O)(CO)C2O)O[C@@H]1C (stereo partly drawn) [#NP6, (6R)-6-{(1E,3E)-5-[(2S,3S,5R,6R)-5-{[(2Z,4S)-4-(acetyloxy)pent-2-enoyl]amino}-3,6-dimethyltetrahydro-2H-pyran-2-yl]-3-methylpenta-1,3-dien-1-yl}-1-deoxy-4-C-(hydroxymethyl)hex-2-ulopyranose]",> 100 nM,–,> 100 nM,> 100 nM
"CC(=O)OCC1(O)CC(/C=C/C(C)=C/C[C@@H]2O[C@H](C)[C@H](NC(=O)/C=C\[C@H](C)OC(C)=O)C[C@@H]2C)OC(CC(=O)O)C1 (stereo partly drawn) [#NP7, (4-[(acetyloxy)methyl]-6-{(1E,3E)-5-[(2S,3S,5R,6R)-5-{[(2Z,4S)-4-(acetyloxy)pent-2-enoyl]amino}-3,6-dimethyltetrahydro-2H-pyran-2-yl]-3-methylpenta-1,3-dien-1-yl}-4-hydroxytetrahydro-2H-pyran-2-yl)acetic acid]",> 100 nM,–,> 100 nM,> 100 nM
"CC(=O)O[C@@H](C)/C=C\C(=O)N[C@@H]1C[C@H](C)[C@H](C/C=C(C)/C=C/C2CC(O)(CCl)CC(CC(=O)O)O2)O[C@@H]1C (stereo partly drawn) [#NP8, [6-{(1E,3E)-5-[(2S,3S,5R,6R)-5-{[(2Z,4S)-4-(acetyloxy)pent-2-enoyl]amino}-3,6-dimethyltetrahydro-2H-pyran-2-yl]-3-methylpenta-1,3-dien-1-yl}-4-(chloromethyl)-4-hydroxytetrahydro-2H-pyran-2-yl]acetic acid]",1.35 nM,–,1.94 nM,0.643 nM
"CC(=O)OCC1(O)C(O)C(/C=C/C(C)=C/C[C@@H]2O[C@H](C)[C@H](NC(=O)/C=C\[C@H](C)OC(C)=O)C[C@@H]2C)OC(C)(O)C1O (stereo partly drawn) [#NP9, 4-C-[(acetyloxy)methyl]-6-{(1E,3E)-5-[(2S,3S,5R,6R)-5-{[(2Z,4S)-4-(acetyloxy)pent-2-enoyl]amino}-3,6-dimethyltetrahydro-2H-pyran-2-yl]-3-methylpenta-1,3-dien-1-yl}-1-deoxyhex-2-ulopyranose]",59.2 nM,–,65.8 nM,74.3 nM
